Experimental data reported in patent publication US20250340590A1, “PEPTIDE HAVING ANTI-INFLAMMATORY ACTIVITY AND USE THEREOF” (CAREGEN CO., LTD., priority 2021, published 2025).

Key:
iNos = iNos protein level by Western blot in HaCaT cells induced with LPS, TGFβ and IL-23; type: cell-based, human; conditions: IL-23 and LPS, peptide at 5 μM and 50 μM, 24 hours, compared to group not treated with the peptide
Method: In order to further confirm the anti-inflammatory effect of the peptide treatment of the present invention in addition to the results of Experimental Example 1, HaCaT cells were treated with Th17 (type 17), which is an inflammation-inducing substance, and the expression levels of inflammation-inducing markers iNos and Cox2 were confirmed. As the inflammation-inducing substances, the cells were treated with LPS, TGFβ, and IL-23, and since iNos is an enzyme involved in the production of nitric oxide (NO), which is an inflammation-related protein induced by LPS, etc., it is possible to confirm whether inflammation is inhibited by measuring the expression levels of iNos and Cox2.
HaCaT cells were dispensed into a 24-well plate at a concentration of 3× 10^5 cells/well and cultured until the next day. The medium was replaced with serum-free medium, and after 4 hours, the cells were treated with TGFβ, IL-23, and LPS, which are Th17 type inflammation-inducing cytokines, and then with the peptide of the present invention and cultured again for another 24 hours. […] In order to perform Western blotting, the amounts of iNos and Cox2 proteins were measured using an anti-iNos antibody and an anti-Cox2 antibody (Cell Signaling Technology, USA). […]

IFNγ [1] = assay: IFNγ secretion by ELISA in LPS-induced mouse splenocytes; type: cell-based; conditions: LPS 2 μg/mL, peptide at 5 μM and 50 μM, 24 hours
Method: Inflammation was induced in mouse splenocytes, and the secretion amounts of inflammatory cytokines TNFα, IL-1β, and IFNγ were confirmed. In order to induce inflammation, the cells were treated with an inflammation-inducing antigen, LPS, and since TNFα corresponds to a signaling protein associated with inflammation, IL-1β corresponds to a cytokine that promotes inflammation, and IFNγ also corresponds to a cytokine that promotes inflammation, the degree of inflammation can be confirmed by measuring the secretion amounts of TNFα, IL-1B, and IFNγ.
Mouse splenocytes were dispensed into a 24-well plate at a concentration of 1×10^7 cells/well and cultured until the next day. The medium was replaced with serum-free medium, and after 4 hours, the cells were treated with LPS and the peptide of the present invention and then cultured again for another 24 hours. In order to induce inflammation, the cells were treated with LPS at 2 μg/mL, and the peptide at 5 μM and 50 μM, respectively. […]

IFNγ [2] = assay: IFNγ secretion by ELISA in TNFα-induced mouse splenocytes; type: cell-based; conditions: TNFα 20 nM, 24 hours
Method: Inflammation was induced by treating mouse splenocytes with the inflammatory cytokine TNFα, and the secretion amounts of the inflammatory cytokines IL-17, IL-1B, and IFNγ were confirmed. IL-17 corresponds to a pro-inflammatory cytokine, and the descriptions of IL-1β and IFNγ are the same as above.
Mouse splenocytes were dispensed into a 24-well plate at a concentration of 1×10^7 cells/well and cultured until the next day. The medium was replaced with serum-free medium, and after 4 hours, the cells were treated with TNFα and the peptide of the present invention and then cultured again for another 24 hours. In order to induce inflammation, the cells were treated with TNFα at 20 nM, and the peptide at 5 μM and 50 μM, respectively. The mouse splenocytes in the group in which inflammation was not induced due to untreatment with TNFα (NON); the negative control group in which the cells were treated with TNFα but not treated with the peptide (NC); and the group in which the cells were treated with TNFα along with the peptide of the present invention at the same concentration as above, respectively, were reacted as described above and the cell cultures were recovered. […]

TWNS [peptide of the present invention]
decreased: expression level of iNos protein (iNos) | secretion amount of IFNγ (IFNγ [1]) | secretion amount of IFNγ (IFNγ [2]; peptide at 5 μM) | secretion amount of IFNγ (IFNγ [2]; peptide at 50 μM)
